{"source": "patent US4910017A", "about": "“New compounds WF 2015 A and B” (Fujisawa Pharmaceutical Company, Ltd., priority 1987, dated 1990)", "key": {"[1]": {"assay": "Solubility of WF 2015 A and B (physicochemical properties)"}, "[2]": {"test_system": "Mouse fibrosarcoma Meth A", "assay": "TEST 1: antitumor activity of WF 2015 A in experimental tumor system in mice (Meth A)", "format": "in vivo, mouse (Balb/c)", "details": "at 14 days, mean ± S.E., n = 5, Control 1136.6 ± 138.3", "procedure": "The antitumor activity of WF 2015 A was determined in experimental tumor system in mice.\nMouse fibrosarcoma Meth A was implanted intradermally into Balb/c mice (female, 8 weeks age) at an inoculum size of 1×10^5 cells per mouse. Twenty-four hours after the implantation of tumor cells, graded doses of WF 2015 A were administered to the mice intravenously. Treatments were once a day on day 1, 2, 3, 4 and 7, 8, 9, 10 after the tumor inoculation. Control animals received intravenous doses of physiological saline solution. The injection volume was 0.2 ml in all experiments. Five mice were used for each experimental group.\nTumor weight at 14 days after administration, as derived from caliper measurements of the length and width of tumors, was calculated by the formula: Tumor weight (mg)=1/2×a×b^2, where a represents the length and b represents the width (mm)."}, "[3]": {"test_system": "Human lung adenocarcinoma A549 cell", "assay": "TEST 2: in vitro cytotoxicity of WF 2015, A549 cells", "format": "cell-based", "details": "120 hours incubation, 37° C.", "procedure": "(§1) Human lung adenocarcinoma A549 cell and mouse lymphoma EL-4 cell were used in this study. A549 cells were propagated as monolayer culture in Dulbecco's medium supplemented with 10% heat inactivated fetal bovine serum (FBS), penicillin G (60 μg/ml) and streptomycin (20 μg/ml) and harvested by trypsinization. EL-4 cells were maintained in RPMI medium supplemented with 10% FBS and the antibiotics in culture flasks.\n(§2) Exponentially growing cells of A 549 or EL-4, which harvested from the cultures, were suspended in flask in the appropriate medium (Dulbecco's or RPMI medium supplemented with 10% FBS and antibiotics) at a concentration of 2×10^4 cells/ml or 2×10^5 cells/ml. respectively. Cells were treated with the graded doses of WF 2015 in plastic tissue culture dishes.\n(§3) Concentration of the substance required for 50% inhibition of cell growth (IC50 value, μg/ml) was determined by plotting the logarithm of the drug concentration versus the growth rate (percentage of control) of the treated cells after 120 hours incubation for A 549 cells and 48 hours incubation for EL-4 cells at 37° C. in humidified atmosphere of 5% carbon dioxide."}, "mouse lymphoma EL-4 cell": {"test_system": "mouse lymphoma EL-4 cell", "assay": "TEST 2: in vitro cytotoxicity of WF 2015, EL-4 cells", "format": "cell-based", "details": "48 hours incubation, 37° C.", "procedure": "as §1, §2, §3"}, "ICR strain mice": {"test_system": "ICR strain mice", "assay": "TEST 3: acute toxicity of WF 2015 in mice", "format": "in vivo, mouse (ICR)", "details": "100 mg/kg once a day for 5 days, 5 female ICR mice"}, "[4]": {"test_system": "C57BL/6 responder cells (mixed lymphocyte reaction)", "assay": "TEST 4: suppression of in vitro mixed lymphocyte reaction (MLR)", "format": "cell-based, mouse (C57BL/6, BALB/C)", "details": "4080 min", "procedure": "The MLR tests were carried out in microtiter plates, with each well containing specified concentration of WF 2015 A and 5×10^5 C57BL/6 responder cells (H-2^b), 5×10^5 mitomycin C treated (25 μg/ml mitomycin C at 37° C. for 30 minutes) BALB/C stimulator cells (H-2^d) in 0.2 ml RPMI 1640 medium, supplemented with 10% fetal calf serum, 2mM glutamine, 3×10^-5 M 2-mercaptoethanol, 24 mM sodium bicarbonate, penicillin (50 unit/ml) and streptomycin (50 μ/ml). The cells were incubated at 37° C. in a humidified atmosphere of 5% CO2 :95% air for 68 hours and pulsed with ^3 H-thymidine (0.5 μCi) 4 hours before the cells were collected. Radio-activity of the cells was assayed by B-counter. From the resultant data, MLR suppression (%) was calculated."}, "Human MX-1 mammary": {"test_system": "Human MX-1 mammary", "assay": "TEST 5: antitumor activity in vivo (human MX-1 mammary in nude mice)", "parameters": "species or system human tumor in BALB/c nu/nu mice", "details": "day 0→4, 7→11, 14→18, evaluated day 21, n = 8", "procedure": "Human MX-1 mammary (each fragment, 3×3×3 mm), maintained s.c. by serial passage in female BALB/c nu/nu mice aged 6 weeks was implanted s.c. to female BALB/c nu/nu mice on day 0, and WF 2015 A or vehicle were given i.v. to the mice once a day on specified days (day0→4, day 7→11 and day 14→18).\nTumor weight was calculated as follows: (Tumor length and width were measured by caliper.)\nTumor weight (mg)=1/2×a×b^2, where a represents length and b represents width (mm).\nTumor weights (initial) and (last) were calculated on the first injection day (just before dosing) and on day 21, (the last evaluation day), respectively.\nEight mice were used for each test group and each vehicle-treated control group, respectively.\nDrug efficacy was expressed as tumor growth inhibition (%)."}}}
{"molecule": "CO[C@@H]1[C@H](OC(=O)/C=C/C(O)C(C)O)CC[C@]2(CO2)[C@H]1[C@@]1(C)O[C@@H]1CC=C(C)C", "note": "(some centres unmarked) [WF 2015 A]", "values": [{"measurement": "Solubility", "setting": "[1]; Chloroform, methanol, acetone, ethanol", "value": "Soluble"}, {"measurement": "Solubility", "setting": "[1]; n-Hexane, water", "value": "Insoluble"}, {"measurement": "Tumor weight", "setting": "[2]; 1.0 mg/kg i.v. once a day on day 1, 2, 3, 4 and 7, 8, 9, 10", "value": "864 ± 108.7", "unit": "mg"}, {"measurement": "Tumor weight", "setting": "[2]; 3.3 mg/kg i.v. once a day on day 1, 2, 3, 4 and 7, 8, 9, 10", "value": "682 ± 131.5", "unit": "mg"}, {"measurement": "Tumor weight", "setting": "[2]; 10 mg/kg i.v. once a day on day 1, 2, 3, 4 and 7, 8, 9, 10", "value": "27.7 ± 105.6", "unit": "mg"}, {"measurement": "IC50 value (concentration required for 50% inhibition of cell growth)", "setting": "[3]", "value": 0.3, "unit": "ng/mL"}, {"measurement": "IC50 value (concentration required for 50% inhibition of cell growth)", "setting": "mouse lymphoma EL-4 cell", "value": 0.65, "unit": "ng/mL"}, {"measurement": "Acute toxicity, abnormal symptom of the mice", "setting": "ICR strain mice", "value": "no abnormal symptom of the mice was observed"}, {"measurement": "MLR suppression (%)", "setting": "[4]; 0.0066 ng/ml", "value": 0.0, "unit": "%"}, {"measurement": "MLR suppression (%)", "setting": "[4]; 0.02 ng/ml", "value": 0.4, "unit": "%"}, {"measurement": "MLR suppression (%)", "setting": "[4]; 0.066 ng/ml", "value": 8.5, "unit": "%"}, {"measurement": "MLR suppression (%)", "setting": "[4]; 0.2 ng/ml", "value": 9.4, "unit": "%"}, {"measurement": "MLR suppression (%)", "setting": "[4]; 6.6 ng/ml", "value": 49.1, "unit": "%"}, {"measurement": "MLR suppression (%)", "setting": "[4]; 20 ng/ml", "value": 86.2, "unit": "%"}, {"measurement": "MLR suppression (%)", "setting": "[4]; 40 ng/ml", "value": 88.0, "unit": "%"}, {"measurement": "MLR suppression (%)", "setting": "[4]; 161 ng/ml", "value": 87.3, "unit": "%"}, {"measurement": "MLR suppression (%)", "setting": "[4]; 1,250 ng/ml", "value": 89.0, "unit": "%"}, {"measurement": "MLR suppression (%)", "setting": "[4]; 10,000 ng/ml", "value": 94.4, "unit": "%"}, {"measurement": "Tumor Growth Inhibition (%)", "setting": "Human MX-1 mammary; 10 mg/kg i.v. once a day", "value": 41.2, "unit": "%"}, {"measurement": "Tumor Growth Inhibition (%)", "setting": "Human MX-1 mammary; 30 mg/kg i.v. once a day", "value": 62.6, "unit": "%"}]}
